Usually AC50 stands for the midpoint of the concentration-response curve, whichever way the signal moves. One may read the Ki as a dissociation constant, usually derived from enzyme kinetics or from competition with a known ligand. A word on the IC50: it is the concentration needed to halve the response being measured.

The values that follow come from ChEMBL document CHEMBL1201862, “PubChem BioAssay data set” (2004).

Each structure is given as a SMILES string. Activity calls are given as the source filed them.

Common to all, as to format: functional
The target in test [1] is T1, Replicative DNA helicase DnaB (Mycobacterium tuberculosis, UniProt P9WMR3).
T1 sequence (P9WMR3 whole entry): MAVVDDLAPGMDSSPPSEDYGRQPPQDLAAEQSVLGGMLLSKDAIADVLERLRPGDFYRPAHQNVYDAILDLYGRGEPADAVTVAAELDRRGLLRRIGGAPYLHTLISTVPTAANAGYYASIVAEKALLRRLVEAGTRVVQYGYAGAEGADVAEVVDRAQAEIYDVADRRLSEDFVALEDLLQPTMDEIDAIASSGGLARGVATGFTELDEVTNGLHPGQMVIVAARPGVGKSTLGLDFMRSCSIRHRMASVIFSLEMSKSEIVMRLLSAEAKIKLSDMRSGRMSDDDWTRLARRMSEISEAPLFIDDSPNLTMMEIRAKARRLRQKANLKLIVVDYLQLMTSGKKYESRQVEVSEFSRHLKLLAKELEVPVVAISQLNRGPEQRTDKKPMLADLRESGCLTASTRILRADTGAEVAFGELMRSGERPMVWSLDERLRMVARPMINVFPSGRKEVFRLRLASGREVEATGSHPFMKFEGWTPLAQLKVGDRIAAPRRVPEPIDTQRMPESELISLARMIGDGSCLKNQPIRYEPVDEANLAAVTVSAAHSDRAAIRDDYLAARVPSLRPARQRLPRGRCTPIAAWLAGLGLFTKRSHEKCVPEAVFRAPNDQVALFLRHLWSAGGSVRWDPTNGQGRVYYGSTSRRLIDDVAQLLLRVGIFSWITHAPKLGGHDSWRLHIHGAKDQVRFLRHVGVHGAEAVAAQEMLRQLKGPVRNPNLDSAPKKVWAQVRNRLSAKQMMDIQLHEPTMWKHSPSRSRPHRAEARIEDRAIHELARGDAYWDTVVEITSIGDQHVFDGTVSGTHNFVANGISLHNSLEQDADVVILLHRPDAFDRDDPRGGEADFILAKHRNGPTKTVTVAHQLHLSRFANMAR
The test can be described thus: DnaB intein splicing inhibitors, dose response, biochemical, cell-free fluorescence (AID 449749).

Test [2] deals with Dual specificity protein kinase CLK2 (Homo sapiens, UniProt P49760).
Test [3] has as its target Tyrosine-protein kinase JAK2 (Homo sapiens, UniProt O60674).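 Further: JAK2 tested as one member of a kinase panel.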
The target of test [4] is ALK tyrosine kinase receptor (Homo sapiens, UniProt Q9UM73).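 Further: ALK tested as one member of a kinase panel screen.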
Test [5] addresses Proto-oncogene tyrosine-protein kinase receptor Ret (Homo sapiens, UniProt P07949).
Test [6] addresses Tyrosine-protein kinase receptor TYRO3 (Homo sapiens, UniProt Q06418).
The target in test [7] is Mitogen-activated protein kinase 8 (Homo sapiens, UniProt P45983).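 Further: value comes from one member of a kinome-wide kinase profiling panel.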
The target in test [8] is Tyrosine-protein kinase BTK (Homo sapiens, UniProt Q06187).
The target of test [9] is MAP/microtubule affinity-regulating kinase 3 (Homo sapiens, UniProt P27448).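 Further: MARK3 affinity measured as one member of a kinome panel.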
Test [10] deals with Vascular endothelial growth factor receptor 2 (Homo sapiens, UniProt P35968).
The target in test [11] is Insulin-like growth factor 1 receptor (Homo sapiens, UniProt P08069). The test can be described thus: Navigating the Kinome. Panel member name: IGF1R.
The target of test [12] is T2, cAMP-dependent protein kinase catalytic subunit PRKX (Homo sapiens, UniProt P51817).
T2 sequence (P51817 whole entry): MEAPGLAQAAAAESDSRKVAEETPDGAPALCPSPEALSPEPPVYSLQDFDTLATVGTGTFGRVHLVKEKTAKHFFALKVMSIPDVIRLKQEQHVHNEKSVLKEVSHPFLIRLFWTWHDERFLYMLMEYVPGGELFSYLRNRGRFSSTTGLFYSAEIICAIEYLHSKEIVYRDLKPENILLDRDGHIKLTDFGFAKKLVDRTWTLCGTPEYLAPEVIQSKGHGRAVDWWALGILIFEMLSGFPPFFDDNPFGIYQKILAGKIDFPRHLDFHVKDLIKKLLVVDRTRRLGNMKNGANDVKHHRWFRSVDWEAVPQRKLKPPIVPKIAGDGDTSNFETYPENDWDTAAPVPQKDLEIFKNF

Test [13] addresses Macrophage colony-stimulating factor 1 receptor (Homo sapiens, UniProt P07333).
Test [14] has as its target T3, Sentrin-specific protease 7 (Homo sapiens, UniProt Q9BQF6).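 Further: Luminescence-based dose-response confirmation of ultra-high-throughput screening hits, measuring inhibition of SENP7.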
T3 sequence (Q9BQF6 whole entry): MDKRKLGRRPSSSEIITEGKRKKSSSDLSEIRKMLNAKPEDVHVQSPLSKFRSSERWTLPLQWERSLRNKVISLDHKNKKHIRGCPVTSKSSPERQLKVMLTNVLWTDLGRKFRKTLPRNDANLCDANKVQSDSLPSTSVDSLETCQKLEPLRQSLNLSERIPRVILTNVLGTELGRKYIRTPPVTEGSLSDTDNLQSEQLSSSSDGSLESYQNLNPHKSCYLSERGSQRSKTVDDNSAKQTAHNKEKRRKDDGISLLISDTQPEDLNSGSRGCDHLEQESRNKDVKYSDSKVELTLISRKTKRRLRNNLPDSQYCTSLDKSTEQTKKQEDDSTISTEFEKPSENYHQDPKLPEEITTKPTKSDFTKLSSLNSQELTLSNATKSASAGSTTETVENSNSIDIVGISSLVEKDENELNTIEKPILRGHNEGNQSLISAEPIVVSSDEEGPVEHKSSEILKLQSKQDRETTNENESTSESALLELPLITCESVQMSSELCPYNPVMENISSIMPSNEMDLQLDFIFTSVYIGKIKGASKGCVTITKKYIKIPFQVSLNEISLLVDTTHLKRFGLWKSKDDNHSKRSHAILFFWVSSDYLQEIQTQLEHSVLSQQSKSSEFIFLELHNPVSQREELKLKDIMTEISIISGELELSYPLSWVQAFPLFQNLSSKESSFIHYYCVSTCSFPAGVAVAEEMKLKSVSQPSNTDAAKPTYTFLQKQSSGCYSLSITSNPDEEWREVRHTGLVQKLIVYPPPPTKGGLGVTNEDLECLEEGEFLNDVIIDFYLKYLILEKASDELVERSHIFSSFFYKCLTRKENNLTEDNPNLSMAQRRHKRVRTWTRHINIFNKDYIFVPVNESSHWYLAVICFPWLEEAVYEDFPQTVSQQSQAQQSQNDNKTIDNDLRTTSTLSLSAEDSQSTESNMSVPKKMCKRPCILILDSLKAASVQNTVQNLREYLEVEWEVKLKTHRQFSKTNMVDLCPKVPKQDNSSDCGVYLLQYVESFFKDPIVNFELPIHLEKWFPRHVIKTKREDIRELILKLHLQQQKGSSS

Mitogen-activated protein kinase 8, sequence (P45983 whole entry): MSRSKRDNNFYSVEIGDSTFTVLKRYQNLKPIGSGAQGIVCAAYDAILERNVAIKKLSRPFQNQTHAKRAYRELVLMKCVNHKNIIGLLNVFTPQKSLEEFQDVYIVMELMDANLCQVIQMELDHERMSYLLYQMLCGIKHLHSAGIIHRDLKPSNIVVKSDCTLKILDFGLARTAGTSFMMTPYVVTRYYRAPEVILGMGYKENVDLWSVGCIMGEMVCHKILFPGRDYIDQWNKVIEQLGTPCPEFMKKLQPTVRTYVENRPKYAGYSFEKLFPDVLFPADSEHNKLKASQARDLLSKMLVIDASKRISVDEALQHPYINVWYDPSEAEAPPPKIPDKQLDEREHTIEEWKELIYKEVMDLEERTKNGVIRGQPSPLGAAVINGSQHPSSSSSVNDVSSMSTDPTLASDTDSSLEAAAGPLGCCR
Macrophage colony-stimulating factor 1 receptor, sequence (P07333 whole entry): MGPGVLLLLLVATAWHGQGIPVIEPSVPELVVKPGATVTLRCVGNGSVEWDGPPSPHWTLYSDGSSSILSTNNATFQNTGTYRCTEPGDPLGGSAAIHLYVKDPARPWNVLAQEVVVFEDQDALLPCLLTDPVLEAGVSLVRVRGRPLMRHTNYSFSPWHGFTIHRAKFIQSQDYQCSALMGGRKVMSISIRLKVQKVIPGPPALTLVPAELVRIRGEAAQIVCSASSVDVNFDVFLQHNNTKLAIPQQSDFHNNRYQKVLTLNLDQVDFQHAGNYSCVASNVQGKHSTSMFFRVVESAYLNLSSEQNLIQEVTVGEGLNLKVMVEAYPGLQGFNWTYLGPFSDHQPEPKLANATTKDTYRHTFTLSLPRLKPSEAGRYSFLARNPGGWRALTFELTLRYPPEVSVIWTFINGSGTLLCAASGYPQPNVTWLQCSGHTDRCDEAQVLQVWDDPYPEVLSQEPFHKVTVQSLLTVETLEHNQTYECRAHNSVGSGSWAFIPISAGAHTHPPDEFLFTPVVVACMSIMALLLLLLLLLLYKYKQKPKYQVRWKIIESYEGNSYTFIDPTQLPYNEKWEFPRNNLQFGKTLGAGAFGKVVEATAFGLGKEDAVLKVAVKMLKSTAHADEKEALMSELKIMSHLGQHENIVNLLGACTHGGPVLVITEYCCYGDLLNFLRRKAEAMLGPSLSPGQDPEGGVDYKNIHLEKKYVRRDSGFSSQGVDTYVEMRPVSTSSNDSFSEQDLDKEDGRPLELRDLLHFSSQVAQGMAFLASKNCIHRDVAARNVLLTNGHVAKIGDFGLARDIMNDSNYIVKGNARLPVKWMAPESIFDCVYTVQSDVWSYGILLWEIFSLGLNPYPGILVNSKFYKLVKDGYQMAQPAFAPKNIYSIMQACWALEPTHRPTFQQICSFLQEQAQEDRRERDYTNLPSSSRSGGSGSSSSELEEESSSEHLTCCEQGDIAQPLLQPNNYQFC
Tyrosine-protein kinase JAK2, sequence (O60674 whole entry): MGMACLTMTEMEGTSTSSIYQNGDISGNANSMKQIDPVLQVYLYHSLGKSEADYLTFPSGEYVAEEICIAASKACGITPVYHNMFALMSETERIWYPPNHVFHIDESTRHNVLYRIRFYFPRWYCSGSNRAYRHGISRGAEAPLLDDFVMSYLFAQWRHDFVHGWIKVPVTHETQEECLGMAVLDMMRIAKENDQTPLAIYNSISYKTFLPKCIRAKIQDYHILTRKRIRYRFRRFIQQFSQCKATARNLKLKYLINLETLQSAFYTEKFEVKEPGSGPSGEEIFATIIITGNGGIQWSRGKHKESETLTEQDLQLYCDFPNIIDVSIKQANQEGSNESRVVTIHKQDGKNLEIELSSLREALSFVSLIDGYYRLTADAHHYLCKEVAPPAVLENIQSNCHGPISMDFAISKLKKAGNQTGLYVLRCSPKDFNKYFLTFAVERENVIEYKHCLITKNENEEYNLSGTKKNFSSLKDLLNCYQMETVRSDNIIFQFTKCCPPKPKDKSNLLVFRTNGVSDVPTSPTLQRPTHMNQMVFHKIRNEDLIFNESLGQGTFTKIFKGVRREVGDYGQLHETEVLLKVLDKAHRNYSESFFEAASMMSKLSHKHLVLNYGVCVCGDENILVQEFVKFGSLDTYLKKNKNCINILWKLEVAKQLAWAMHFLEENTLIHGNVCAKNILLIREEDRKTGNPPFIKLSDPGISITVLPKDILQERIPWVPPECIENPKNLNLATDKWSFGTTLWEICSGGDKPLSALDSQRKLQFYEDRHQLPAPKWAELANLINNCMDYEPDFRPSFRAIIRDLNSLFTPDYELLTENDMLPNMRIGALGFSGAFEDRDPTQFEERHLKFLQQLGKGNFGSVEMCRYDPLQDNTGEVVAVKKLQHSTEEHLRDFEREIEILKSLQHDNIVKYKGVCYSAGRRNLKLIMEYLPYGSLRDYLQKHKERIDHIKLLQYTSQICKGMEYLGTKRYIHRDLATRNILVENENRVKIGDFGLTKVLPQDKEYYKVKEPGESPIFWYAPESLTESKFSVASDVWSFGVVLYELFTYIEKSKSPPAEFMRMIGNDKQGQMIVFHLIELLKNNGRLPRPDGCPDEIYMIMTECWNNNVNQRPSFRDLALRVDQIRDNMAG
Vascular endothelial growth factor receptor 2, sequence (P35968 whole entry): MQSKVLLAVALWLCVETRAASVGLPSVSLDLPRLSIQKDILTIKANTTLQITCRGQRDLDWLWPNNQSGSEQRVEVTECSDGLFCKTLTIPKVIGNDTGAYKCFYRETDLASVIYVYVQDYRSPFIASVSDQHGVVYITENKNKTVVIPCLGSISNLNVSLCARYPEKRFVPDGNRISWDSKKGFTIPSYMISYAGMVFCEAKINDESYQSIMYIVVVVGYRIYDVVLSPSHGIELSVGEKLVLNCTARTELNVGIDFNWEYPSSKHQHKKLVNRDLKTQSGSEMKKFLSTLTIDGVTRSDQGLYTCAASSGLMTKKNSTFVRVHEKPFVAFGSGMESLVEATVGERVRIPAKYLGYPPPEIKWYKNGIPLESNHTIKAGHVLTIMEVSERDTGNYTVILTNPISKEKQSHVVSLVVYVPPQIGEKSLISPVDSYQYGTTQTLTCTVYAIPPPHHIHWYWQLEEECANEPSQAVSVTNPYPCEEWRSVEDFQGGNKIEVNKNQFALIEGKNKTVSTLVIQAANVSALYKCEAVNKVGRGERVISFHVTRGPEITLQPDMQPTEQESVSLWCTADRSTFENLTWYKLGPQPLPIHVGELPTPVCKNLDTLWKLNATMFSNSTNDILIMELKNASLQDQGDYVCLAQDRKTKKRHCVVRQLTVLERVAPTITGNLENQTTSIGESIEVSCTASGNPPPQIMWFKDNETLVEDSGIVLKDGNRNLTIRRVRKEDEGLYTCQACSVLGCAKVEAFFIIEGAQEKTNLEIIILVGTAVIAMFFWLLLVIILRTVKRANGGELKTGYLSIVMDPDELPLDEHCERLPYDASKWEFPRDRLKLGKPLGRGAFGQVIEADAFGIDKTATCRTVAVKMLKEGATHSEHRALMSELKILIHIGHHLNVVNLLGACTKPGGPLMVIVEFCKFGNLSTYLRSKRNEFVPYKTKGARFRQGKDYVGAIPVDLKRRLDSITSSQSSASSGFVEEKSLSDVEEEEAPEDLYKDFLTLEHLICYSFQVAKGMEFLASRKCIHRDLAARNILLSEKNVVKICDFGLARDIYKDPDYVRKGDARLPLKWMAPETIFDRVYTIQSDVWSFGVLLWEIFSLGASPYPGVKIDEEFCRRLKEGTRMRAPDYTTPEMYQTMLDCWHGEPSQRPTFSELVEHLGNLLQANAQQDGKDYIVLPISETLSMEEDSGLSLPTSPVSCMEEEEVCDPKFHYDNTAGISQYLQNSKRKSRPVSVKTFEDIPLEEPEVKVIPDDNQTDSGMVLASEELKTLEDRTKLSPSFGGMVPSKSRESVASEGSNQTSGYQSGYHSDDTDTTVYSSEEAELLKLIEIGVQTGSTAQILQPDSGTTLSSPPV
Proto-oncogene tyrosine-protein kinase receptor Ret, sequence (P07949 whole entry): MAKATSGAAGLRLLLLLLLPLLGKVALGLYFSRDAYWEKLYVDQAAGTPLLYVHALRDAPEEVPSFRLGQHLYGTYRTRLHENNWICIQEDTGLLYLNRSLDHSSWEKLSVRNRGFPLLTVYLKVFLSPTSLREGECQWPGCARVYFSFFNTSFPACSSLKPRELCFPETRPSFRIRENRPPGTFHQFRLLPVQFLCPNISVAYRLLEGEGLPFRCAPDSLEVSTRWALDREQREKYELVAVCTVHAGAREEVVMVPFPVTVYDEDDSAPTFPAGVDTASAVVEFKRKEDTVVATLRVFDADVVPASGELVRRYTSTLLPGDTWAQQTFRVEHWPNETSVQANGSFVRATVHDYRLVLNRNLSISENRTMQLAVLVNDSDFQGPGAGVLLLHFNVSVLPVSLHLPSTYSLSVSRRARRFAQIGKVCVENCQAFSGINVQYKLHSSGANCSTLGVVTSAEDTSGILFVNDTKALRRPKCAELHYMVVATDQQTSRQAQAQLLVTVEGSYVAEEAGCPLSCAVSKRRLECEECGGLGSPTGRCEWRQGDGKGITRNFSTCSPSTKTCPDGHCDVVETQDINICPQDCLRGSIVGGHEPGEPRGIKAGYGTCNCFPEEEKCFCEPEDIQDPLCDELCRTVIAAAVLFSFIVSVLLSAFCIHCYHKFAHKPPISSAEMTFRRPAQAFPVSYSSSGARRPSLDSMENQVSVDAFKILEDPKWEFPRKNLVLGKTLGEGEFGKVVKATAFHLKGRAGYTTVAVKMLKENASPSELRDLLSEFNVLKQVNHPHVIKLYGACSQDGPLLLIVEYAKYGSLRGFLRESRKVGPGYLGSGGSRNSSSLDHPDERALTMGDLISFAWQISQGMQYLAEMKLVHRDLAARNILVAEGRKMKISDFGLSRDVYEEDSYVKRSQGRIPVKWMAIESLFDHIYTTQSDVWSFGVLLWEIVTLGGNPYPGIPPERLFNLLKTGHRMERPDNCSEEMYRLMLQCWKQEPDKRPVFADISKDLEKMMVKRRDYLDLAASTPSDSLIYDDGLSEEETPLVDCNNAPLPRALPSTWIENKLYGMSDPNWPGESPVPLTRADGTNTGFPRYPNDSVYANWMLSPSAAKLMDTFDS

Turning to `CCCCCCCCCCC[N+](C)(C)CC/C=C1/c2ccccc2Sc2ccc(Cl)cc21`, in test [1], the AC50 was > 380 µM (inactive).

As to `CCn1c(-c2nonc2N)nc2cncc(C(=O)N3CCC(N)C3)c21` (stereo not drawn), the Ki is 1 µM (active) in test [2]; > 2.51 µM (inactive) in test [3]; > 6.31 µM (inactive) in [4]; > 3.16 µM (inactive) in test [5]; > 3.16 µM (inactive) in [6]; > 5.01 µM (inactive) in test [7]. Further, the Ki was > 6.31 µM (inactive) in test [8]; 2 µM (active) in test [9]; > 2 µM (inactive) in test [10]; > 2.51 µM (inactive) in [11]; 0.02 µM (active) in [12]; > 2.51 µM (inactive) in test [13].

Consider `Cc1[nH]nc2ccc(-c3cncc(OCC(N)Cc4c[nH]c5ccccc45)c3)cc12` (stereo not drawn), for which the inhibition constant Ki in [2] was 0.00316 µM (active); in test [3], > 1.58 µM (inactive); in [4], > 1.26 µM (inactive); in [5] it was > 1.26 µM (inactive); in [6], > 2 µM (inactive); in [7], 1.58 µM (active). Also, the Ki was > 1.26 µM (inactive) in test [8]; 0.398 µM (active) in test [9]; 3.98 µM (active) in test [10]; > 2 µM (inactive) in test [11]; 0.0631 µM (active) in test [12]; > 2.51 µM (inactive) in test [13].

For the molecule `COC(=O)c1ccccc1NC1=C/C(=N\S(=O)(=O)c2cccs2)c2ccccc2C1=O`, in test [14], the IC50 was 32.3 µM (active). In addition, the AC50 in test [1] is > 380 µM (inconclusive).

Take `Cc1cc(C)c[n+](C2=C([N-]S(=O)(=O)c3cccs3)C(=O)c3ccccc3C2=O)c1`: the IC50 in test [14] was 41.2 µM (active).
